Tests used:
[1] = system: human embryonic stem cell derived neural stem cells (NSCs); assay: Neural Stem Cell Proliferation Assay (neurogenesis assay, ATP levels by CellTiterGlo); format: cell-based; conditions: 96 h, compound concentration at which 150% activity of control (100%) is reached, NSC proliferation by ATP level after 4 days incubation, dose response 8 μM to 8 nM
Summary of the method: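 Read-out is CellTiterGlo ATP luminescence after 4-day culture (37 °C, 5% CO2) of dual-SMAD-derived human ESC NSCs, dosed 4 h post-seeding at 8 μM to 8 nM (11 points, 2-fold). EC150 marks the concentration reaching 150% of the media-only control (0.25% DMSO).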

Compound	melting point [°C]	EC (150% of control) [1] [µM]
Cc1c2n(c3c(-c4cc(F)cc(F)c4)cc(C#N)cc13)CCNC2=O [Example 261, 6-(3,5-Difluorophenyl)-10-methyl-1-oxo-3,4-dihydro-2H-pyrazino[1,2-a]indole-8-carbonitrile]	303	0.091
COc1ccc(-c2cc(C#N)cc3c(C)c4n(c23)CCCNC4=O)cc1 [Example 262, 7-(4-Methoxyphenyl)-11-methyl-1-oxo-2,3,4,5-tetrahydro-[1,4]diazepino[1,2-a]indole-9-carbonitrile]	277	0.029
N#Cc1cc(-c2ccc(CO)cc2)c2c(c1)cc1n2CCCNC1=O [Example 266, 7-[4-(Hydroxymethyl)phenyl]-1-oxo-2,3,4,5-tetrahydro-[1,4]diazepino[1,2-a]indole-9-carbonitrile]	256.5	0.93
Cc1ccc(-c2cc(C#N)cc3c(C)c4n(c23)CCNC4=O)cc1F [Example 267, 6-(3-Fluoro-4-methylphenyl)-10-methyl-1-oxo-3,4-dihydro-2H-pyrazino[1,2-a]indole-8-carbonitrile]	255	0.71
N#Cc1cccc(-c2cc(C#N)cc3cc4n(c23)CCCNC4=O)c1 [Example 269, 7-(3-Cyanophenyl)-1-oxo-2,3,4,5-tetrahydro-[1,4]diazepino[1,2-a]indole-9-carbonitrile]	225.5	1.09
N#Cc1cc(-c2ccncc2)c2c(c1)cc1n2CCCNC1=O [Example 271, 1-Oxo-7-pyridin-4-yl-2,3,4,5-tetrahydro-[1,4]diazepino[1,2-a]indole-9-carbonitrile]	278.5	0.65
N#Cc1cc(-c2ccccc2)c2c(c1)cc1n2CCCNC1=O [Example 274, 1-Oxo-7-phenyl-2,3,4,5-tetrahydro-[1,4]diazepino[1,2-a]indole-9-carbonitrile]	237.5	1.1
COc1ccc(-c2cc(C#N)cc3cc4n(c23)CCCNC4=O)cc1 [Example 275, 7-(4-Methoxyphenyl)-1-oxo-2,3,4,5-tetrahydro-[1,4]diazepino[1,2-a]indole-9-carbonitrile]	260.5	1.11
Cc1c2n(c3c(-c4ccc([N+](=O)[O-])cc4)cc(C#N)cc13)CCNC2=O [Example 276, 10-Methyl-6-(4-nitrophenyl)-1-oxo-3,4-dihydro-2H-pyrazino[1,2-a]indole-8-carbonitrile]	312	0.11
Cc1c2n(c3c(-c4ccc(CO)cc4)cc(C#N)cc13)CCNC2=O [Example 277, 6-[4-(Hydroxymethyl)phenyl]-10-methyl-1-oxo-3,4-dihydro-2H-pyrazino[1,2-a]indole-8-carbonitrile]	265	0.025
Cc1c2n(c3c(-c4ccc(Cl)nc4)cc(C#N)cc13)CCNC2=O [Example 278, 6-(6-Chloropyridin-3-yl)-10-methyl-1-oxo-3,4-dihydro-2H-pyrazino[1,2-a]indole-8-carbonitrile]	318	0.44
Cc1c2n(c3c(-c4cccc(C#N)c4)cc(C#N)cc13)CCNC2=O [Example 279, 6-(3-Cyanophenyl)-10-methyl-1-oxo-3,4-dihydro-2H-pyrazino[1,2-a]indole-8-carbonitrile]	266	0.31
Cc1c2n(c3c(-c4ccc(C(C)(C)C)cc4)cc(C#N)cc13)CCNC2=O [Example 280, 6-(4-tert-Butylphenyl)-10-methyl-1-oxo-3,4-dihydro-2H-pyrazino[1,2-a]indole-8-carbonitrile]	292	0.14
Cc1c2n(c3c(-c4ccnc(Cl)c4)cc(C#N)cc13)CCNC2=O [Example 281, 6-(2-Chloropyridin-4-yl)-10-methyl-1-oxo-3,4-dihydro-2H-pyrazino[1,2-a]indole-8-carbonitrile]	281	0.22
Cc1c2n(c3c(-c4cccnc4)cc(C#N)cc13)CCNC2=O [Example 282, 10-Methyl-1-oxo-6-pyridin-3-yl-3,4-dihydro-2H-pyrazino[1,2-a]indole-8-carbonitrile]	273	0.96
Cc1c2n(c3c(-c4cncnc4)cc(C#N)cc13)CCNC2=O [Example 283, 10-Methyl-1-oxo-6-pyrimidin-5-yl-3,4-dihydro-2H-pyrazino[1,2-a]indole-8-carbonitrile]	325	1.61
N#Cc1cc(-c2ccc(F)c(F)c2F)c2c(c1)cc1n2CCCNC1=O [Example 284, 1-Oxo-7-(2,3,4-trifluorophenyl)-2,3,4,5-tetrahydro-[1,4]diazepino[1,2-a]indole-9-carbonitrile]	187	0.16
N#Cc1cc(-c2cccc(Cl)c2)c2c(c1)cc1n2CCCNC1=O [Example 285, 7-(3-Chlorophenyl)-1-oxo-2,3,4,5-tetrahydro-[1,4]diazepino[1,2-a]indole-9-carbonitrile]	209	3.12
Cc1ccc(-c2cc(C#N)cc3cc4n(c23)CCCNC4=O)cc1 [Example 287, 7-(4-Methylphenyl)-1-oxo-2,3,4,5-tetrahydro-[1,4]diazepino[1,2-a]indole-9-carbonitrile]	240.5	0.22
Cc1ccc(-c2cc(C#N)cc3c(C)c4n(c23)CCCNC4=O)cc1 [Example 288, 11-Methyl-7-(4-methylphenyl)-1-oxo-2,3,4,5-tetrahydro-[1,4]diazepino[1,2-a]indole-9-carbonitrile]	287	0.04
Cc1c2n(c3c(-c4cccc(F)c4)cc(C#N)cc13)CCCNC2=O [Example 289, 7-(3-Fluorophenyl)-11-methyl-1-oxo-2,3,4,5-tetrahydro-[1,4]diazepino[1,2-a]indole-9-carbonitrile]	261	0.035
Cc1c2n(c3c(-c4cc(F)cc(F)c4)cc(C#N)cc13)CCCNC2=O [Example 290, 7-(3,5-Difluorophenyl)-11-methyl-1-oxo-2,3,4,5-tetrahydro-[1,4]diazepino[1,2-a]indole-9-carbonitrile]	265	0.29
Cc1ccc(-c2cc(C#N)cc3c(C)c4n(c23)CCCNC4=O)cc1F [Example 291, 7-(3-Fluoro-4-methylphenyl)-11-methyl-1-oxo-2,3,4,5-tetrahydro-[1,4]diazepino[1,2-a]indole-9-carbonitrile]	265	0.16
Cc1cc(-c2cc(C#N)cc3c(C)c4n(c23)CCNC4=O)ccc1F [Example 292, 6-(4-Fluoro-3-methylphenyl)-10-methyl-1-oxo-3,4-dihydro-2H-pyrazino[1,2-a]indole-8-carbonitrile]	232	0.089
Cc1c2n(c3c(-c4ccc(S(C)(=O)=O)cc4)cc(C#N)cc13)CCNC2=O [Example 294, 10-Methyl-6-(4-methylsulfonylphenyl)-1-oxo-3,4-dihydro-2H-pyrazino[1,2-a]indole-8-carbonitrile]	332	0.27
Cc1c2n(c3c(-c4ccc(Cl)c(C(F)(F)F)c4)cc(C#N)cc13)CCNC2=O [Example 295, 6-[4-Chloro-3-(trifluoromethyl)phenyl]-10-methyl-1-oxo-3,4-dihydro-2H-pyrazino[1,2-a]indole-8-carbonitrile]	278	0.3
Cc1c2n(c3c(-c4ccc(Cl)c(Cl)c4)cc(C#N)cc13)CCCNC2=O [Example 296, 7-(3,4-Dichlorophenyl)-11-methyl-1-oxo-2,3,4,5-tetrahydro-[1,4]diazepino[1,2-a]indole-9-carbonitrile]	254	0.2
Cc1c2n(c3c(-c4ccc(Cl)c(F)c4)cc(C#N)cc13)CCCNC2=O [Example 297, 7-(4-Chloro-3-fluorophenyl)-11-methyl-1-oxo-2,3,4,5-tetrahydro-[1,4]diazepino[1,2-a]indole-9-carbonitrile]	247.5	0.096
Cc1c2n(c3c(-c4cccnc4)cc(C#N)cc13)CCCNC2=O [Example 298, 11-Methyl-1-oxo-7-pyridin-3-yl-2,3,4,5-tetrahydro-[1,4]diazepino[1,2-a]indole-9-carbonitrile]	260	1

From patent publication US9284321B2, “Piperazino[1,2-a]indol-1-ones and [1,4]diazepino[1,2-a]indol-1-one” (Hoffmann-La Roche Inc., priority 2012, dated 2016)
